Measured values from patent US6797699B1, “Neuroprotective agents” (University of Southampton, priority 1997, dated 2004).
Entries after “also recorded” stand apart in the source; their conditions may differ. Marks after values point to notes of the source that are not given here.

Tests used:
[1] = system: CA1 pyramidal cell layer of organotypic hippocampal slice cultures; assay: Hypoxic neuronal damage in organotypic hippocampal slice cultures (propidium iodide fluorescence); assay type: cell-based, Wistar rat
Protocol: Hypoxic neuronal damage was studied using organotypic hippocampal slice cultures [Pringle A. K. et al. (1996 Stroke 27 2124-2130)].
Cultures were prepared according to the method of Stoppini et al (1991 J. Neurosci. Meth. 37 173-182) from 8-10 day old Wistar rat pups (Bioresources Unit, University of Southampton). Cultures were maintained in vitro for 14 days (37° C., 5% CO2) during which the medium (50% minimum essential medium (MEM), 25% Hank's balanced salt solution (HBSS), 25% heat-inactivated horse serum, supplemented with 1 mM glutamine, 5 mg/ml glucose and 1.5% fungizone) was changed every 3 days. Hypoxia was induced by replacing culture medium with serum-free (SF) medium (75% MEM, 25% HBSS, 1 mM glutamine, 5 mg/ml glucose, 1.5% fungizone) saturated with 95% N2/5% CO2 (and thus oxygen-free), and placing cultures in an air-tight chamber in which the atmosphere was also saturated with N2/CO2. After 180 minutes hypoxia, cultures were replated in normoxic SF medium and replaced in the incubator for 24 hours. Compounds were added to cultures either pre-, during and post-hypoxia (herein abbreviated to “pdp”) or just in the post-hypoxic recovery period (“post”) [Johnson, T. D. (1996 Trends Pharmacol. Sci. 22-27)]. Cell damage was evaluated using the fluorescent exclusion dye propidium iodide (PI, 5 μg/ml) which is normally excluded from healthy cells, but enters cells with damaged plasma membranes and becomes highly fluorescent when bound to DNA. Neuronal cell damage was quantified using the “NIH Image 1.55” software (written by Wayne Rasband at the U.S. National Institutes for Health and available from the internet by anonymous ftp from zippy.nimh.nih.gov). Briefly, the area of the CA1, CA3 and dentate gyrus (DG) cell layers was measured from a transmission image. 24 hours after the commencement of hypoxia, a fluorescence image was captured using a standard Leica inverted fluorescence microscope fitted with a rhodamine filter set. The area of PI fluorescence above background in the neuronal cell layers was determined using the density slice function of Image. Cellular damage is expressed as the percentage area of the cell body layers in which PI fluorescence was detectable. After imaging, cultures were fixed overnight in 4% paraformaldehyde and stained with thionin.
Data are expressed as the mean±sem. Data from the non-drug groups was pooled before analysis. Statistical significance was determined using one-way analysis of variance (ANOVA) followed by post-hoc non-paired Student's t-tests. As only cells within the CA1 region were susceptible to hypoxia-induced damage, all of the pharmacological data was calculated for this region alone.
Table 1 represents the quantification of the percentage area of the CA1 pyramidal cell layer in which PI fluorescence was detectable 24 hours after 3 hours of hypoxia (% Damage CA1). Data from all of the cultures exposed to hypoxia alone were pooled (control hypoxia). The percentage neuroprotection was calculated as the (((% damage control hypoxia-% damage drug treated)/% damage control hypoxia) 100). Data are expressed as the mean±sem, n=number of cultures, *p<0.05, **<0.01, ***p<0.001 vs hypoxia control.

[2] = system: mice; settings: FTX isolated from funnel-web spider toxin; Proc. Natl. Acad. Sci. USA 86, 1689-1693 (1989); cited from earlier work
[3] = Table 1, 300 μM added post-hypoxia, 3 h hypoxia, PI at 24 h, control hypoxia 35.6 ± 1.43, mean±sem
[4] = Table 1, 300 μM added post-hypoxia, vs control hypoxia

Row | Compound | neuroprotective effect / reduction of PI fluorescence in CA1 (in words) ([1]; 300 μM added post-hypoxia) | % Damage CA1 [1, 3] | % Protection [1, 4] [%] | also measured
1 | NCCCCNCCCNC(=O)C(N)CCCCN [B, N^1-L-Lysinylspermidine] | also protective, although to a lesser extent | 27.0 ± 3.7* % | 24.2 | neuroprotective effect / reduction of PI fluorescence in CA1 (in words) ([1]; 300 μM added post-hypoxia, listed as L-LysSp): small but significant reduction in PI fluorescence; also recorded: active
2 | NCCCCNCCCNC(=O)C(N)CCCN [C, N^1-L-Ornithylspermidine] | also protective, although to a lesser extent | 30.6 ± 3.8% | 14.0 | neuroprotective effect / reduction of PI fluorescence in CA1 (in words) ([1]; 300 μM added post-hypoxia, listed as L-OrnSp): less of a significant reduction in damage; also recorded: active
3 | NCCCCNCCCNC(=O)C(N)CCCNC(N)=O (stereo not drawn) [Compound I] | significant protective effect |  |  | % Protection ([1]; Table 6, 300 μM post): 53%; % Damage CA1 ([1]; Table 6, 300 μM post, hypoxia control 23.2 ± 4.9): 10.9 ± 5.7* %
4 | NC(N)=NCCCC(N)C(=O)O [D-Arg, reference compound] |  | 32.7 ± 7.0% | 8.1 | 
5 | N=C(N)NCCCC(N)C(=O)NCCCNCCCN (stereo not drawn) [FTX] |  |  |  | toxicity to mice (in words) [2]: toxic to mice in extremely small doses
6 | N=C(N)NCCC[C@H](N)C(=O)O [L-Arg, L-arginine, reference compound] | no efficacy was detected | 38.5 ± 4.0% | 0 | neuroprotective effect / reduction of PI fluorescence in CA1 (in words) ([1]; 300 μM added post-hypoxia, listed as L-arginine): Neither spermidine nor L-arginine individually produced a reduction in damage
7 | NCCCCNCCCN [Spermidine, spermidine, reference compound] | no neuroprotective effects; also recorded: no efficacy was detected | 34.2 ± 5.4% | 3.9 | 
8 | N1-D-Arginylspermidine [Compound Z^1] |  | 32.6 ± 4.1% | 8.4 | neuroprotective effect / reduction of PI fluorescence in CA1 (in words) ([1]; 300 μM added post-hypoxia, listed as D-ArgSp): did not result in any observable reduction of PI fluorescence; also recorded: inactive
9 | N^1-D-Lysinylspermidine [Compound Z^2] |  | 36.3 ± 3.5% | 0 | neuroprotective effect / reduction of PI fluorescence in CA1 (in words) ([1]; 300 μM added post-hypoxia, listed as D-LysSp): did not result in any observable reduction of PI fluorescence; also recorded: inactive
10 | N^1-D-Ornithylspermidine [Compound Z^3] | did not result in any observable reduction of PI fluorescence | 36.71 ± 3.2% | 0 | 
